Values after ≈ are worked out from the molar mass of the structure shown.
Columns and labels:
S.aureus Smith = assay: Efficacy against systemic infections (septicemia) in mice; format: in vivo; details: Staphylococcus aureus, 96 h, sc 1 and 3 h after challenge, survival day 4
Procedure: (§1) Septicemia was induced in outbred Swiss albino mice (Jbm MoRo [specific pathogen free]; weight 16 to 20 g, Biomedical Research Laboratories, Füllinsdorf, Switzerland). Mice were infected by intraperitoneal injection of diluted overnight cultures of the test organisms. Bacterial challenge doses were 4-10 times the number of organisms required to kill 50% of untreated animals within 48 h. The test compounds were administered p.o. or s.c. 1 and 3 h after the bacterial challenge. To treat the infection with Pseudomonas aeruginosa BA an additional dose was given 5 h after challenge. Control and treatment groups at each dose were composed of five mice each. The 50% effective dose (ED50, in milligrams per kilogram) was calculated by probit analysis as described by Finney (Finney, D.J. 1978, Statistical method in biological assay, 3rd ed. Charles Griffin & Co., Ltd., London), from the survival rates on day 4 after infection.

S.aureus MRSA = assay: In vitro activity against selected species (MIC50, MIC90, range); format: cell-based; details: Staphylococcus aureus, medium MHA (Mueller Hinton Agar) +NaCl; for MIC: MIC range
Procedure: (§2) In vitro activity was determined by minimum inhibitory concentration in a microorganism spectum by the agar dilution method in Mueller Hinton agar.

E.faecalis = assay: as above; format: cell-based; details: Enterococcus faecalis, medium MHA; for MIC: MIC range
Procedure: as §2

S.pyogenes B15 = assay: Antibacterial spectrum (MIC), agar dilution; format: cell-based; details: Streptococcus pyogenes, read-out: MIC
Procedure: as §2

S.agalactiae QK44 = assay: Antibacterial spectrum (MIC), agar dilution; format: cell-based; details: Streptococcus agalactiae, read-out: MIC
Procedure: as §2

H.influenzae 1 = assay: Antibacterial spectrum (MIC), agar dilution; format: cell-based; details: Haemophilus influenzae, read-out: MIC
Procedure: as §2

P.mirabilis 2117 = assay: Antibacterial spectrum (MIC), agar dilution; format: cell-based; details: Proteus mirabilis, read-out: MIC
Procedure: as §2

E.faecalis 6 = assay: Antibacterial spectrum (MIC), agar dilution; format: cell-based; details: Enterococcus faecalis, read-out: MIC
Procedure: as §2

C.freundii 902 = assay: Antibacterial spectrum (MIC), agar dilution; format: cell-based; details: Citrobacter freundii, read-out: MIC
Procedure: as §2

N.meningitidis 69480 = assay: Antibacterial spectrum (MIC), agar dilution; format: cell-based; details: Neisseria meningitidis, read-out: MIC
Procedure: as §2

P.aeruginosa 27853 = assay: Antibacterial spectrum (MIC), agar dilution; format: cell-based; details: Pseudomonas aeruginosa, read-out: MIC
Procedure: as §2

K.pneumoniae 418 = assay: Antibacterial spectrum (MIC), agar dilution; format: cell-based; details: Klebsiella pneumoniae, read-out: MIC
Procedure: as §2

S.pneumoniae Q19 = assay: Antibacterial spectrum (MIC), agar dilution; format: cell-based; details: Streptococcus pneumoniae, read-out: MIC
Procedure: as §2

E.cloacae 908SSi = assay: Antibacterial spectrum (MIC), agar dilution; format: cell-based; details: Enterobacter cloacae, read-out: MIC
Procedure: as §2

C.freundii 43 = assay: Antibacterial spectrum (MIC), agar dilution; format: cell-based; details: Citrobacter freundii, read-out: MIC
Procedure: as §2

M.catarrhalis RA21 = assay: Antibacterial spectrum (MIC), agar dilution; format: cell-based; details: Moraxella catarrhalis, read-out: MIC
Procedure: as §2

P.vulgaris 1028 = assay: Antibacterial spectrum (MIC), agar dilution; format: cell-based; details: Proteus vulgaris, read-out: MIC
Procedure: as §2

S.viridans group 016 = assay: Antibacterial spectrum (MIC), agar dilution; format: cell-based; details: Streptococcus viridans, read-out: MIC
Procedure: as §2

S.aureus 6538 = assay: Antibacterial spectrum (MIC), agar dilution; format: cell-based; details: Staphylococcus aureus, read-out: MIC
Procedure: as §2

E.coli 25922 = assay: Antibacterial spectrum (MIC), agar dilution; format: cell-based; details: Escherichia coli, read-out: MIC
Procedure: as §2

S.marcescens 69438 = assay: Antibacterial spectrum (MIC), agar dilution; format: cell-based; details: Serratia marcescens, read-out: MIC
Procedure: as §2

S.aureus 734 MRSA = assay: Antibacterial spectrum (MIC), agar dilution; format: cell-based; details: Staphylococcus aureus, read-out: MIC
Procedure: as §2

E.cloacae 908R = assay: Antibacterial spectrum (MIC), agar dilution; format: cell-based; details: Enterobacter cloacae, read-out: MIC
Procedure: as §2

Acinetobacter sp.51-156 = assay: Antibacterial spectrum (MIC), agar dilution; format: cell-based; details: SP.51156, read-out: MIC
Procedure: as §2

X.maltophilia 1AC739 = assay: Antibacterial spectrum (MIC), agar dilution; format: cell-based; details: Stenotrophomonas maltophilia, read-out: MIC
Procedure: as §2

M.morganii 6H-137 = assay: Antibacterial spectrum (MIC), agar dilution; format: cell-based; details: Morganella morganii, 6H137, read-out: MIC
Procedure: as §2

S.aureus MSSA = assay: In vitro activity against selected species (MIC50, MIC90, range); format: cell-based; details: Staphylococcus aureus, medium MHB (Mueller Hinton Broth)
Escherichia coli 25922 = assay: Efficacy against systemic infections (septicemia) in mice; format: in vivo; details: Escherichia coli, 96 h, E.coli 25922, sc 1 and 3 h after challenge, survival day 4
Procedure: as §1

L.monocytogenes BK23 = assay: Antibacterial spectrum (MIC), agar dilution; format: cell-based; details: Listeria monocytogenes, read-out: MIC
Procedure: as §2

E.faecium = assay: In vitro activity against selected species (MIC50, range); format: cell-based; details: Enterococcus faecium, medium MHA
Procedure: as §2

S.pneumoniae PEN-R = assay: In vitro activity against selected species (MIC50, MIC90, range); format: cell-based; details: Streptococcus pneumoniae, medium IsoB + 20% serum

Row | MIC (S.aureus MRSA) [µg/mL] | MIC50 (S.aureus MRSA) [µg/mL] | MIC90 (S.aureus MRSA) [µg/mL] | MIC (E.faecalis) [µg/mL] | MIC50 (E.faecalis) [µg/mL] | MIC90 (E.faecalis) [µg/mL] | MIC (S.pyogenes B15) [µg/mL] | MIC (S.agalactiae QK44) [µg/mL] | MIC (H.influenzae 1) [µg/mL] | MIC (P.mirabilis 2117) [µg/mL] | MIC (E.faecalis 6) [µg/mL] | MIC (C.freundii 902) [µg/mL] | MIC (N.meningitidis 69480) [µg/mL] | MIC (P.aeruginosa 27853) [µg/mL] | MIC (K.pneumoniae 418) [µg/mL] | MIC (S.pneumoniae Q19) [µg/mL] | MIC (E.cloacae 908SSi) [µg/mL] | MIC (C.freundii 43) [µg/mL] | MIC (M.catarrhalis RA21) [µg/mL] | Compound | ED50 (S.aureus Smith) [mg/kg] | other results
1 | 16 to 32 (≈ 29.6 to 59.2 µM) | 16 (≈ 29.6 µM) | 16 (≈ 29.6 µM) | 0.5 to 16 (≈ 0.925 to 29.6 µM) | 1 (≈ 1.85 µM) | 1 (≈ 1.85 µM) | ≤ 0.06 | 0.25 (≈ 0.462 µM) | 0.5 (≈ 0.925 µM) | ≤ 0.06 | 0.25 (≈ 0.462 µM) | 0.5 (≈ 0.925 µM) | 0.12 (≈ 0.222 µM) | 32 (≈ 59.2 µM) | 0.12 (≈ 0.222 µM) | 0.12 (≈ 0.222 µM) | 0.5 (≈ 0.925 µM) | 4 (≈ 7.4 µM) | > 16 | Nc1nc(/C(=N/O)C(=O)N[C@@H]2C(=O)N3C(C(=O)O)=C(/C=C4\CCN(c5ccccc5)C4=O)CS[C@H]23)cs1 [H] | < 0.5 | MIC (P.vulgaris 1028): 2 µg/mL (≈ 3.7 µM); MIC (S.viridans group 016): 1 µg/mL (≈ 1.85 µM); MIC (S.aureus 6538): 0.5 µg/mL (≈ 0.925 µM); MIC (E.coli 25922): 0.25 µg/mL (≈ 0.462 µM); MIC (S.marcescens 69438): 1 µg/mL (≈ 1.85 µM); MIC (S.aureus 734 MRSA): 8 µg/mL (≈ 14.8 µM); MIC (E.cloacae 908R): 16 µg/mL (≈ 29.6 µM); MIC (Acinetobacter sp.51-156): 32 µg/mL (≈ 59.2 µM); MIC (X.maltophilia 1AC739): > 32 µg/mL; MIC (M.morganii 6H-137): ≤ 0.06 µg/mL
2 | 8 to 16 (≈ 15.7 to 31.3 µM) | 8 (≈ 15.7 µM) | 8 (≈ 15.7 µM) | 0.5 to 2 (≈ 0.979 to 3.92 µM) | 1 (≈ 1.96 µM) | 2 (≈ 3.92 µM) | ≤ 0.06 | 0.12 (≈ 0.235 µM) | 0.12 (≈ 0.235 µM) | ≤ 0.06 | 1 (≈ 1.96 µM) | 0.12 (≈ 0.235 µM) | ≤ 0.06 | 32 (≈ 62.7 µM) | ≤ 0.06 | ≤ 0.06 | 0.12 (≈ 0.235 µM) | 4 (≈ 7.84 µM) | 8 (≈ 15.7 µM) | Nc1nc(/C(=N/O)C(=O)N[C@@H]2C(=O)N3C(C(=O)O)=C(/C=C4\CCN(CCF)C4=O)CS[C@H]23)cs1 [F, [6R-[3(E),6α,7β(Z)]]-7-[[(2-Amino-4-thiazolyl)(hydroxyimino)-acetyl]amino] -3-[[1-(2-fluoroethyl)-2-oxo-3-pyrrolidinylidene]methyl] -8-oxo-5-this-1-azabicyclo[4.2.0]-oct-2-ene-2-carboxylic acid] | < 1 | MIC (S.aureus MSSA; MIC range): 0.5 to 1 µg/mL (≈ 0.979 to 1.96 µM); MIC50 (S.aureus MSSA): 0.5 µg/mL (≈ 0.979 µM); MIC90 (S.aureus MSSA): 1 µg/mL (≈ 1.96 µM); ED50 (Escherichia coli 25922): < 0.1 mg/kg; MIC (L.monocytogenes BK23): 2 µg/mL (≈ 3.92 µM); MIC (P.vulgaris 1028): 2 µg/mL (≈ 3.92 µM); MIC (S.viridans group 016): 0.5 µg/mL (≈ 0.979 µM); MIC (S.aureus 6538): 0.5 µg/mL (≈ 0.979 µM); MIC (E.coli 25922): ≤ 0.06 µg/mL; MIC (S.marcescens 69438): 0.5 µg/mL (≈ 0.979 µM); MIC (S.aureus 734 MRSA): 8 µg/mL (≈ 15.7 µM); MIC (E.cloacae 908R): 16 µg/mL (≈ 31.3 µM); MIC (Acinetobacter sp.51-156): 16 µg/mL (≈ 31.3 µM); MIC (X.maltophilia 1AC739): > 32 µg/mL; MIC (M.morganii 6H-137): ≤ 0.06 µg/mL; MIC (E.faecium; MIC range): 1 to 16 µg/mL (≈ 1.96 to 31.3 µM); MIC50 (E.faecium): 2 µg/mL (≈ 3.92 µM); MIC (S.pneumoniae PEN-R; MIC range): 0.12 to 0.5 µg/mL; MIC50 (S.pneumoniae PEN-R): 0.5 µg/mL
